In patent publication US10294202B2, “Pyrrolidinones as herbicides” (FMC Corporation, priority 2013, dated 2019):

Key:
ryegrass, Italian = assay: Test C pre-/postemergence herbicide test; format: in vivo, Lolium multiflorum
How it was run: (§1)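 Compound solutions contained surfactant in a non-phytotoxic solvent. These were sprayed onto pots of loam/sand sown with seeds, and onto young plants (2 to 18 cm, 1- to 4-leaf) in sphagnum peat–vermiculite mix. Visual injury scores (0 none, 100 complete control) were recorded after 13 to 15 days.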

corn [1] = assay: Test A pre-/postemergence herbicide test; format: in vivo, Zea mays; details: Postemergence
How it was run: (§2)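 Formulated compound (non-phytotoxic solvent, surfactant) sprayed pre- onto soil of seeded loam/sand pots or post- onto seedlings at 1–2 leaves; ~10 d greenhouse; 0–100 visual control rating versus untreated.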

galium = assay: Test C pre-/postemergence herbicide test; format: in vivo, Galium aparine; details: Preemergence; for Plant response rating, Galium: 125 g ai/ha, scale 0 to 100; for Plant response rating (scale of 0 to 100), Galium: 250 g ai/ha
How it was run: as §1

pigweed = assay: Test A pre-/postemergence herbicide test; format: in vivo, Amaranthus retroflexus
How it was run: as §2

ragweed = assay: Test C pre-/postemergence herbicide test; format: in vivo, Ambrosia elatior
How it was run: as §1

corn [2] = assay: Test C pre-/postemergence herbicide test; format: in vivo, Zea mays
How it was run: as §1

foxtail, giant = assay: Test C pre-/postemergence herbicide test; format: in vivo, Setaria faberii
How it was run: as §1

sedge, umbrella = assay: Test B flooded paddy test; format: in vivo, Cyperus difformis; details: 500 g ai/ha, Flood; scale of 0 to 100 where 0 is no effect and 100 is complete control
How it was run: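 Treatment was made at the 2-leaf stage by dosing the standing floodwater, kept 3 cm above soil level for the whole test. Greenhouse exposure lasted 13 to 15 days. Response is a visual percent rating relative to controls, where a dash indicates no test result.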

barnyardgrass = assay: Test A pre-/postemergence herbicide test; format: in vivo, Echinochloa crus-galli
How it was run: as §2

soybean = assay: Test C pre-/postemergence herbicide test; format: in vivo, Glycine max
How it was run: as §1

oat, wild = assay: Test C pre-/postemergence herbicide test; format: in vivo, Avena fatua; details: Postemergence
How it was run: as §1

[3] = Postemergence, 31 g ai/ha, scale 0 to 100 (0 no effect, 100 complete control)
[4] = Postemergence, 62 g ai/ha, scale 0 (no effect) to 100 (complete control)
[5] = Postemergence, 125 g ai/ha, scale 0 to 100 (0 no effect, 100 complete control)
[6] = Postemergence, 250 g ai/ha, scale 0 to 100 (0 no effect, 100 complete control)
[7] = Preemergence, 62 g ai/ha, scale 0 to 100 (0 no effect, 100 complete control)
[8] = Preemergence, 125 g ai/ha, scale 0 to 100
[9] = 125 g ai/ha, visual rating on 0 to 100 scale (0 no effect, 100 complete control), approx. 10 days
[10] = 500 g ai/ha, 0 to 100 scale (0 no effect, 100 complete control)
[11] = 31 g ai/ha, scale 0 to 100, 0 is no effect and 100 is complete control
[12] = 62 g ai/ha, scale 0 to 100 (0 no effect, 100 complete control)
[13] = Postemergence, 125 g ai/ha, visual rating on 0 to 100 scale (0 no effect, 100 complete control), approx. 10 days
[14] = Postemergence, 500 g ai/ha, 0 to 100 scale (0 no effect, 100 complete control)
[15] = Preemergence, 125 g ai/ha, 0 to 100 scale where 0 is no effect and 100 is complete control
[16] = Preemergence, 500 g ai/ha, visual rating on 0 to 100 scale (0 no effect, 100 complete control)
[17] = Preemergence, 31 g ai/ha, scale 0 to 100, 0 is no effect and 100 is complete control
[18] = 31 g ai/ha, scale 0 to 100 (0 no effect, 100 complete control)
[19] = 62 g ai/ha, scale 0 (no effect) to 100 (complete control)
[20] = 125 g ai/ha, scale 0 to 100 (0 no effect, 100 complete control)
[21] = 250 g ai/ha, scale 0 to 100 (0 no effect, 100 complete control)

Cc1cccc(NC(=O)C2C(=O)NCC2c2cccc(C(F)(F)F)c2)c1 (stereo not drawn) [Compound 317]
50: Plant response rating, Foxtail, Giant (foxtail, giant; [6])
80: Foxtail, Giant plant response rating (foxtail, giant; [17]) | Plant response rating, Barnyardgrass (barnyardgrass; [13])
20: Plant response rating, Corn (corn [1]; [10])
0: Plant response rating, Ryegrass, Italian (ryegrass, Italian; [3]) | Plant response rating, Ryegrass, Italian (ryegrass, Italian; [4]) | Plant response rating, Ryegrass, Italian (ryegrass, Italian; [5]) | Plant response rating, Ryegrass, Italian (ryegrass, Italian; [6]) | Ryegrass, Italian plant response rating (ryegrass, Italian; [7]) | Plant response rating, Ryegrass, Italian (ryegrass, Italian; [8]) | Plant response rating, Corn (corn [1]; [9]) | Galium plant response rating (galium; [11]) | Galium plant response rating (galium; [12]) | Plant response rating, Galium (galium) | Plant response rating (scale of 0 to 100), Galium (galium) | Plant response rating, Pigweed (pigweed; [13]) | Plant response rating, Pigweed (pigweed; [14]) | Plant response rating, Pigweed (pigweed; [15]) | Pigweed plant response rating (pigweed; [16]) | Plant response rating, Ragweed (ragweed; [3]) | Plant response rating, Ragweed (ragweed; [4]) | Ragweed plant response rating (ragweed; [7]) | Plant response rating, Ragweed (ragweed; [8]) | Plant response rating, Corn (corn [2]; [3]) | Plant response rating, Corn (corn [2]; [4]) | Plant response rating, Corn (corn [2]; [5]) | Plant response rating, Corn (corn [2]; [6]) | Corn plant response rating (corn [2]; [17]) | Corn plant response rating (corn [2]; [7]) | Plant response rating, Foxtail, Giant (foxtail, giant; [3]) | Plant response rating, Foxtail, Giant (foxtail, giant; [4]) | Plant response rating, Foxtail, Giant (foxtail, giant; [5]) | Plant response rating, Sedge, Umbrella (sedge, umbrella) | Plant response rating, Soybean (soybean; [3]) | Plant response rating, Soybean (soybean; [4]) | Plant response rating, Soybean (soybean; [5]) | Plant response rating, Soybean (soybean; [6]) | Soybean plant response rating (soybean; [7]) | Plant response rating, Soybean (soybean; [8]) | Plant response rating, Oat, Wild (oat, wild; [18]) | Plant response rating, Oat, Wild (oat, wild; [19]) | Plant response rating, Oat, Wild (oat, wild; [20]) | Plant response rating, Oat, Wild (oat, wild; [21])
90: Foxtail, Giant plant response rating (foxtail, giant; [7]) | Plant response rating, Foxtail, Giant (foxtail, giant; [8]) | Plant response rating, Barnyardgrass (barnyardgrass; [14]) | Plant response rating, Barnyardgrass (barnyardgrass; [15]) | Barnyardgrass plant response rating (barnyardgrass; [16])
40: Plant response rating, Ragweed (ragweed; [6])
25: Plant response rating, Ragweed (ragweed; [5]) | Plant response rating, Corn (corn [2]; [8])
30: Plant response rating (scale of 0 to 100), Corn (corn [2]; Preemergence, 250 g ai/ha)
95: Plant response rating (scale of 0 to 100), Foxtail, Giant (foxtail, giant; Preemergence, 250 g ai/ha)

O=C1NCC(c2cccc(OC(F)F)c2)C1C(=O)Nc1cccc(F)c1F (stereo not drawn) [Compound 324]
85: Plant response rating, Galium (galium) | Plant response rating (scale of 0 to 100), Galium (galium) | Plant response rating (scale of 0 to 100), Corn (corn [2]; Preemergence, 250 g ai/ha)
30: Plant response rating, Pigweed (pigweed; [15])
25: Plant response rating, Ragweed (ragweed; [5]) | Corn plant response rating (corn [2]; [17])
60: Galium plant response rating (galium; [12]) | Pigweed plant response rating (pigweed; [16]) | Ragweed plant response rating (ragweed; [7]) | Plant response rating, Foxtail, Giant (foxtail, giant; [6])
55: Plant response rating, Corn (corn [2]; [5])
20: Plant response rating, Ragweed (ragweed; [4])
40: Plant response rating, Pigweed (pigweed; [13]) | Plant response rating, Ragweed (ragweed; [6])
35: Plant response rating, Ryegrass, Italian (ryegrass, Italian; [8])
10: Ryegrass, Italian plant response rating (ryegrass, Italian; [7]) | Plant response rating, Foxtail, Giant (foxtail, giant; [4])
0: Plant response rating, Ryegrass, Italian (ryegrass, Italian; [3]) | Plant response rating, Ryegrass, Italian (ryegrass, Italian; [4]) | Plant response rating, Ryegrass, Italian (ryegrass, Italian; [5]) | Plant response rating, Ryegrass, Italian (ryegrass, Italian; [6]) | Galium plant response rating (galium; [11]) | Plant response rating, Corn (corn [2]; [3]) | Plant response rating, Corn (corn [2]; [4]) | Plant response rating, Corn (corn [2]; [6]) | Plant response rating, Foxtail, Giant (foxtail, giant; [3]) | Plant response rating, Sedge, Umbrella (sedge, umbrella) | Plant response rating, Soybean (soybean; [3]) | Plant response rating, Soybean (soybean; [5]) | Plant response rating, Soybean (soybean; [6]) | Soybean plant response rating (soybean; [7]) | Plant response rating, Soybean (soybean; [8]) | Plant response rating, Oat, Wild (oat, wild; [18]) | Plant response rating, Oat, Wild (oat, wild; [19]) | Plant response rating, Oat, Wild (oat, wild; [20])
70: Plant response rating, Pigweed (pigweed; [14]) | Corn plant response rating (corn [2]; [7])
90: Plant response rating, Corn (corn [1]; [10]) | Foxtail, Giant plant response rating (foxtail, giant; [17]) | Foxtail, Giant plant response rating (foxtail, giant; [7]) | Plant response rating, Barnyardgrass (barnyardgrass; [13]) | Plant response rating, Barnyardgrass (barnyardgrass; [14]) | Plant response rating, Barnyardgrass (barnyardgrass; [15]) | Barnyardgrass plant response rating (barnyardgrass; [16])
95: Plant response rating, Foxtail, Giant (foxtail, giant; [8]) | Plant response rating (scale of 0 to 100), Foxtail, Giant (foxtail, giant; Preemergence, 250 g ai/ha)
75: Plant response rating, Ragweed (ragweed; [8]) | Plant response rating, Corn (corn [2]; [8]) | Plant response rating, Foxtail, Giant (foxtail, giant; [5])
5: Plant response rating, Ragweed (ragweed; [3]) | Plant response rating, Soybean (soybean; [4]) | Plant response rating, Oat, Wild (oat, wild; [21])
50: Plant response rating, Corn (corn [1]; [9])

O=C1NCC(c2cccc(OC(F)F)c2)C1C(=O)Nc1ccc(F)c(F)c1F (stereo not drawn) [Compound 325]
20: Galium plant response rating (galium; [12])
65: Plant response rating, Foxtail, Giant (foxtail, giant; [5])
0: Plant response rating, Ryegrass, Italian (ryegrass, Italian; [3]) | Plant response rating, Ryegrass, Italian (ryegrass, Italian; [4]) | Plant response rating, Ryegrass, Italian (ryegrass, Italian; [5]) | Galium plant response rating (galium; [11]) | Plant response rating, Corn (corn [2]; [3]) | Plant response rating, Corn (corn [2]; [4]) | Plant response rating, Foxtail, Giant (foxtail, giant; [3]) | Plant response rating, Soybean (soybean; [3]) | Plant response rating, Soybean (soybean; [4]) | Plant response rating, Soybean (soybean; [5]) | Plant response rating, Soybean (soybean; [6]) | Soybean plant response rating (soybean; [7]) | Plant response rating, Soybean (soybean; [8]) | Plant response rating, Oat, Wild (oat, wild; [18]) | Plant response rating, Oat, Wild (oat, wild; [19])
98: Plant response rating, Foxtail, Giant (foxtail, giant; [8])
5: Plant response rating, Oat, Wild (oat, wild; [20])
40: Ryegrass, Italian plant response rating (ryegrass, Italian; [7]) | Plant response rating, Pigweed (pigweed; [13]) | Plant response rating, Sedge, Umbrella (sedge, umbrella)
75: Plant response rating, Foxtail, Giant (foxtail, giant; [6])
25: Plant response rating, Ragweed (ragweed; [5])
15: Plant response rating, Oat, Wild (oat, wild; [21])
95: Foxtail, Giant plant response rating (foxtail, giant; [7]) | Plant response rating (scale of 0 to 100), Foxtail, Giant (foxtail, giant; Preemergence, 250 g ai/ha)
60: Pigweed plant response rating (pigweed; [16]) | Ragweed plant response rating (ragweed; [7]) | Corn plant response rating (corn [2]; [7])
70: Plant response rating, Corn (corn [2]; [8])
50: Plant response rating, Ryegrass, Italian (ryegrass, Italian; [8]) | Plant response rating, Galium (galium) | Plant response rating, Pigweed (pigweed; [14])
30: Plant response rating, Ryegrass, Italian (ryegrass, Italian; [6]) | Plant response rating, Pigweed (pigweed; [15])
35: Plant response rating, Ragweed (ragweed; [6]) | Plant response rating, Corn (corn [2]; [6]) | Plant response rating, Foxtail, Giant (foxtail, giant; [4])
80: Plant response rating, Corn (corn [1]; [9]) | Plant response rating, Corn (corn [1]; [10]) | Plant response rating (scale of 0 to 100), Galium (galium) | Plant response rating, Ragweed (ragweed; [8])
85: Plant response rating (scale of 0 to 100), Corn (corn [2]; Preemergence, 250 g ai/ha)
10: Plant response rating, Ragweed (ragweed; [3]) | Plant response rating, Ragweed (ragweed; [4]) | Plant response rating, Corn (corn [2]; [5]) | Corn plant response rating (corn [2]; [17])
90: Foxtail, Giant plant response rating (foxtail, giant; [17]) | Plant response rating, Barnyardgrass (barnyardgrass; [13]) | Plant response rating, Barnyardgrass (barnyardgrass; [14]) | Plant response rating, Barnyardgrass (barnyardgrass; [15]) | Barnyardgrass plant response rating (barnyardgrass; [16])
